Reference: patent publication US8158621B2, “Methods of treating or preventing autoimmune diseases with 2,4-pyrimidinediamine compounds” (Rigel Pharmaceuticals, Inc., priority 2002, dated 2012)

What was measured:
[1] = tested on: basophil cells (human peripheral blood); assay: Basophil ionomycin activation: histamine release assay; type: cell-based; settings: basophils, ionomycin activation, histamine release; read-out: Basophils Ionomycin Histamine IC50
Method in brief: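 Dextran-sedimented leukocytes from peripheral blood of dust-mite-allergic human donors were incubated with compound (8 concentrations, 0.5% DMSO, triplicate) and then stimulated with 2 μM ionomycin stock (20 μl added) for 30 min at 37° C. Histamine released into the supernatant was measured by ELISA.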

[2] = tested on: cultured human mast cells (CHMC); assay: CHMC high cell density IgE activation: hexos; type: cell-based
[3] = tested on: cultured human mast cells (CHMC); assay: CHMC high cell density IgE activation: tryptase; type: cell-based
Jurkat cells = assay: Jurkat toxicity, Cell Titer Glo assay; type: cell-based, human
Procedure: Seed 50 μl cells (1×10^6/ml) into each well containing 50 μl compound. […] Shake plates for 1 minute to mix cells and compound. Incubate plates at 37° C. […] Next day, harvest 50 μl cells from each well, add to 50 μl Cell Titer Glo reagent ([…]). Shake plates for 1 minute. Read on luminometer.

B-cell line BJAB = assay: BJAB toxicity, Cell Titer Glo assay; type: cell-based
Procedure: Seed 50 μl cells (1×10^6/ml) into each well containing 50 μl compound. The final vehicle concentration is 0.5% DMSO, 1.5% MeOH. Shake plates for 1 minute to mix cells and compound. Incubate plates at 37° C. (5% CO2) for 18 hours. Next day, harvest 50 μl cells from each well, add to 50 μl Cell Titer Glo reagent ([…]). Shake plates for 1 minute. Read on luminometer.

Syk kinase [4] = target: T1, Syk kinase (Homo sapiens, UniProt P43405); assay: Syk kinase biochemical fluorescence polarization assay; settings: isolated Syk kinase, fluorescence polarization, 4 uM ATP
T1 construct: purchased Upstate, Lake Placid NY

[5] = tested on: Human Jurkat T-cells (clone N); assay: Jurkat T-cell activation (anti-TCR, CD69 upregulation); type: cell-based
Method in brief: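 Readout is CD69 upregulation by flow cytometry (anti-CD69-APC, 20 min at 4 °C) after 20 h anti-TCR (C305, 500 ng/ml) stimulation at 37 °C.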

Syk kinase [6] = assay: Phosphorylation of proteins in the FcεRI cascade in activated CHMC cells; type: cell-based, human; settings: activated CHMC cells (FIG. 10)
Procedure: Following electrophoresis, the phosphorylation of the proteins indicated in FIGS. 7, 10 and 11A-D were assessed by immunoblot. Antibodies were purchased from Cell Signaling Technology, Beverley, Mass.

[7] = tested on: cultured human mast cells (CHMC); assay: CHMC low cell density IgE activation: tryptase assay; type: cell-based
Method in brief: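 Supernatant tryptase activity, assayed with substrate for 30 min at room temperature, served as the degranulation measure. Mast cells (1000-1500 per well depending on donor) sat 1 hr at 37° C in MT before a 30 min anti-IgE challenge at 37° C.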

[8] = tested on: cultured human mast cells (CHMC); assay: CHMC low cell density ionomycin activation: tryptase assay; type: cell-based
[9] = tested on: bone marrow derived mast cells (BMMC); assay: BMMC high cell density IgE activation: hexosaminidase; type: cell-based, mouse; settings: High Density section of TABLE 1, BMMC, anti-IgE activation, hexosaminidase; read-out: BMMC anti-IgE hexos. IC50
[10] = tested on: bone marrow derived mast cells (BMMC); assay: BMMC high cell density IgE activation: histamine; type: cell-based, mouse; settings: High Density section of TABLE 1, BMMC, anti-IgE activation, histamine; read-out: BMMC anti-IgE histamine IC50
Procedure: (§1) After sensitizing, cells are counted, pelleted (1000 rpm, 5-10 minutes), and resuspended at 1-3×10^6 cells/ml in MT buffer. Add 100 ul of cell suspension to each well and 100 ul of compound dilutions. The final vehicle concentration is 0.5% DMSO. Incubate at 37° C. (5% CO2) for 1 hour. After 1 hour of compound treatment, stimulate cells with 6× stimulus (60 ng/ml DNP-BSA). Mix wells with the cells and allow plates to incubate at 37° C. (5% CO2) for one hour. After 1 hour incubation, pellet cells (10 minutes, 1000 RPM) and collect 200 ul per well of the supernatant, being careful not to disturb pellet, and transfer to a clean tube or 96-well plate. Place the supernatant plate on ice. During the 4-5 hour step (see next) perform the hexosiminidase assay. Resuspend cell pellet in 240 ul WEI-conditioned media containing 0.5% DMSO and corresponding concentration of compound. Incubate BMMC cells for 4-5 hours at 37° C. (5% CO2). After incubation, pellet cells (1000 RPM, 10 minutes) and collect 225 ul per well and place in −80° C. until ready to perform ELISAS. ELISAS are performed on appropriately diluted samples (determined empirically for each donor cell population so that the sample measurement falls within the standard curve) following the supplier's instructions.

[11] = tested on: bone marrow derived mast cells (BMMC); assay: BMMC high cell density IgE activation: LTC4; type: cell-based, mouse; settings: High Density section of TABLE 1, BMMC, anti-IgE activation, LTC4; read-out: BMMC anti-IgE LTC4 IC50
Procedure: as §1

[12] = tested on: bone marrow derived mast cells (BMMC); assay: BMMC high cell density IgE activation: TNFalpha; type: cell-based, mouse; settings: High Density section of TABLE 1, BMMC, anti-IgE activation, TNFalpha; read-out: BMMC anti-IgE TNF-alpha IC50
Method in brief: (§2)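 Mediator release from sensitized BMMC: after 1 h compound exposure at 37 °C (0.5% DMSO), cells challenged with DNP-BSA for 1 h and early supernatant collected. Cells then recultured 4-5 h in conditioned medium with compound; cytokines IL-6 and TNFα quantified by ELISA.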

[13] = tested on: bone marrow derived mast cells (BMMC); assay: BMMC high cell density IgE activation: IL-6; type: cell-based, mouse; settings: High Density section of TABLE 1, BMMC, anti-IgE activation, IL-6; read-out: BMMC anti-IgE IL-6 IC50
Method in brief: as §2

[14] = tested on: cultured human mast cells (CHMC); assay: CHMC high cell density IgE activation: IL-13; type: cell-based
Procedure: After sensitizing, cells are counted, pelleted (1000 rpm, 5-10 minutes), and resuspended at 1-2 ×10^6 cells/ml in MT buffer. Add 100 ul of cell suspension to each well and 100 ul of compound dilutions. The final vehicle concentration is 0.5% DMSO. Incubate at 37° C. (5% CO2) for 1 hour. After 1 hour of compound treatment, stimulate cells with 6× anti-IgE. Mix wells with the cells and allow plates to incubate at 37° C. (5% CO2) for one hour. After 1 hour incubation, pellet cells (10 minutes, 1000 RPM) and collect 200 ul per well of the supernatant, being careful not to disturb pellet. Place the supernatant plate on ice. During the 7-hour step (see next) perform tryptase assay on supernatant that had been diluted 1:500. Resuspend cell pellet in 240 ul of CM media containing 0.5% DMSO and corresponding concentration of compound. Incubate CHMC cells for 7 hours at 37° C. (5% CO2). After incubation, pellet cells (1000 RPM, 10 minutes) and collect 225 ul per well and place in −80° C. until ready to perform ELISAS. ELISAS are performed on appropriately diluted samples (determined empirically for each donor cell population so that the sample measurement falls within the standard curve) following the supplier's instructions.

[15] = tested on: cultured human mast cells (CHMC); assay: CHMC high cell density IgE activation: LTC4; type: cell-based
Method in brief: (§3)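 IgE-sensitized CHMC at 1-2 ×10^6 cells/ml were preincubated with compound (0.5% DMSO) for 1 h at 37 °C, then stimulated with anti-IgE for 1 h before supernatant collection. Pellets were reincubated with compound for 7 h at 37 °C, and mediators were measured by ELISA on diluted supernatants.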

[16] = tested on: cultured human mast cells (CHMC); assay: CHMC high cell density IgE activation: TNFalpha; type: cell-based; settings: read-out: CHMC high density TNF-alpha
Method in brief: as §3

[17] = tested on: cultured human mast cells (CHMC); assay: CHMC high cell density IgE activation: histamine; type: cell-based
Method in brief: as §3

[18] = tested on: basophil cells (human peripheral blood); assay: Basophil anti-IgE activation: histamine release assay; type: cell-based; settings: basophils, anti-IgE activation, histamine release; read-out: Basophils anti-IgE Histamine IC50
Procedure: (§4) The basophil activation assay was carried out using whole human peripheral blood from donors allergic to dust mites with the majority of the red blood cells removed by dextran sedimentation. Human peripheral blood was mixed 1:1 with 3% dextran T500 and RBCs were allowed to settle for 20-25min. The upper fraction was diluted with 3 volumes of D-PBS and cells were spun down for 10 min at 1500 rpm, RT. Supernatant was aspirated and cells were washed in an equal volume MT-buffer. Finally, cells were resuspended in MT-buffer containing 0.5% DMSO in the original blood volume. 80 uL cells were mixed with 20 uL compound in the presence of 0.5% DMSO, in triplicate, in a V-bottom 96-well tissue culture plate. A dose range of 8 compound concentrations was tested resulting in a 10-point dose response curve including maximum (stimulated) and minimum (unstimulated) response. […] The cells were stimulated for 30 minutes at 37° C., 5% CO2. The plate was spun for 10 min at 1500 rpm at room temperature and 80 uL the supernatant was harvested for histamine content analysis using the histamine ELISA kit supplied by Immunotech. The ELISA was performed according to supplier's instructions.

[19] = tested on: basophil cells (human peripheral blood); assay: Basophil dustmite activation: histamine release assay; type: cell-based; settings: basophils, dust mite activation
Procedure: as §4

[20] = Low Density, read-out: CHMC anti-IgE Tryptase
[21] = Low Density, read-out: CHMC Ionomycin Tryptase
[22] = Low Density CHMC, ionomycin activation, tryptase release, read-out: CHMC Ionomycin Tryptase IC50

| SMILES | IC50 [2] | IC50 [3] | IC50 (Jurkat cells) | IC50 (B-cell line BJAB) | IC50 [5] | IC50 [7, 20] | IC50 [8, 21] | IC50 [9] | IC50 [10] | IC50 [11] | IC50 [12] | IC50 [13] | IC50 [14] | IC50 [16] | other results |
| --- | --- | --- | --- | --- | --- | --- | --- | --- | --- | --- | --- | --- | --- | --- | --- |
| O=C(c1cc2cc(Nc3ncc(F)c(Nc4ccc5c(c4)OCCO5)n3)ccc2o1)N1CCNCC1 [Compound R926501] | > 2000 nM | > 2000 nM | > 4330 nM | > 4330 nM | 1680 nM |  |  |  |  |  |  |  |  |  | IC50 [1]: > 10000 nM; IC50 (Syk kinase [4]): 193 nM |
| CC(C)(C)n1nc(-c2ccc(Cl)cc2)c2c(N)ncnc21 [PP2, reference compound] |  |  |  |  |  |  |  |  |  |  |  |  |  |  | phosphorylation of proteins downstream of LYN kinase but not Syk kinase (Syk kinase [6]): inhibition of phosphorylation of proteins downstream of LYN kinase but not Syk kinase |
| Nc1cccc(Nc2ncc(F)c(Nc3ccc4c(c3)OCCO4)n2)c1 [Compound R950207] |  |  | > 4330 nM |  | 1080 nM | 164 nM | > 10000 nM | < 220 nM | < 220 nM | 288 nM | < 220 nM | < 220 nM |  |  |  |
| Fc1cnc(Nc2cccc(OCCN3CCOCC3)c2)nc1Nc1ccc2c(c1)OCCO2 [Compound R926511] |  |  | > 4330 nM | > 4330 nM |  |  |  |  |  |  |  |  | > 2000 nM |  | IC50 [8, 22]: > 10000 nM |
| OCCOc1cccc(Nc2ncc(F)c(Nc3ccc4c(c3)OCCO4)n2)c1 [Compound R935154] |  |  | > 4330 nM |  | 1650 nM | 127 nM | > 10000 nM | 104 nM | 85 nM | 547 nM | 131 nM | 41 nM |  |  |  |
| OCCOc1cccc(Nc2ncc(F)c(Nc3cccc(OCCO)c3)n2)c1 [Compound R935075] | 647 nM | 1210 nM | > 4330 nM | > 4330 nM | 5370 nM | 930 nM | > 10000 nM |  |  |  |  |  |  | > 2000 nM | IC50 [15]: < 220 nM |
| CC(C)Oc1ccc(Nc2nc(Nc3cccc(OCCO)c3)ncc2F)cc1 [Compound R935156] |  |  | 4050 nM |  | 1840 nM | 149 nM | > 10000 nM | < 220 nM | < 220 nM | 433 nM | 220 nM | < 220 nM |  |  |  |
| Cc1cc(Nc2ncc(F)c(Nc3cccc(O)c3)n2)cc(Cl)c1O [Compound R940233] | 577 nM | 642 nM | > 4330 nM | > 4330 nM | 2170 nM | 132 nM | > 10000 nM |  |  |  |  |  | 1780 nM | 2250 nM | IC50 [17]: 586 nM; IC50 [15]: 118 nM; IC50 (Syk kinase [4]): 151 nM |
| O=C(NCCO)c1cc2cc(Nc3ncc(F)c(Nc4cccc(O)c4)n3)ccc2o1 [Compound R926497] | 1110 nM | 1230 nM |  |  | 3270 nM |  |  |  |  |  |  |  | > 10000 nM | 1880 nM | IC50 ([7]; Low Density CHMC, anti-IgE activation, tryptase release, read-out: CHMC anti-IgE Tryptase IC50): 138 nM; IC50 [8, 22]: > 10000 nM; IC50 [18]: 270 nM; IC50 [19]: 205 nM; IC50 [1]: > 10000 nM; IC50 [17]: 1330 nM |
